Experimental data taken from ChEMBL document CHEMBL5728931, “Inhibitors of phosphoglycerate dehydrogenase (PHGDH) and uses thereof” (2022).

Molecular target: T1, D-3-phosphoglycerate dehydrogenase (Homo sapiens, UniProt O43175)
T1 sequence (O43175 whole entry): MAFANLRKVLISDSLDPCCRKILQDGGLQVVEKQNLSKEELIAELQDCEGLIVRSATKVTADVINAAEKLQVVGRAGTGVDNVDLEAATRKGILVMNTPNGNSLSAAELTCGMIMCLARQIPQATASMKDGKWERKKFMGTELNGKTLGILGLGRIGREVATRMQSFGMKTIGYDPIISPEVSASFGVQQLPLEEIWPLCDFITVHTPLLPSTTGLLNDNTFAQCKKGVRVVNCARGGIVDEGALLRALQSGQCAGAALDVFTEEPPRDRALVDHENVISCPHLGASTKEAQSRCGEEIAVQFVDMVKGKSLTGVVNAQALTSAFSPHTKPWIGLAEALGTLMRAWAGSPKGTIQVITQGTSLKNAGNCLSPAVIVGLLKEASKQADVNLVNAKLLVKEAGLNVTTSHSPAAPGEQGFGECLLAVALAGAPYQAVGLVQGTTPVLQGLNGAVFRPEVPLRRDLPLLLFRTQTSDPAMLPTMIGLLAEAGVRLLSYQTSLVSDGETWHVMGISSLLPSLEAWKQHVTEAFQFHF
Experiment: Enzyme Assay: PHGDH assay buffer contained 50 mM TEA pH 8.0, 10 mM MgCl2, 0.05% BSA, and 0.01% Tween-20. PHGDH enzyme buffer consisted of assay buffer with 20 nM PHGDH and 0.2 mg/mL diaphorase. PHGDH substrate buffer contained 0.3 mM NAD 1.25 mM glutamate, 0.1 mM 3-phosphoglycerate, 0.2 mM resazurin, 1 μM PSAT1, and 1 μM PSPH. qHTS was performed in 1536-well plates dispensed with a BioRAPTR FRD. Each well contained equal volumes of substrate buffer […]. Plates were read at 0 minutes and 20 minutes at room temperature with a ViewLux uHTS Microplate Imager (PerkinElmer). Follow-up assays were performed in black 384-well plates (Greiner) in 20 μL of enzyme buffer to which compounds were added in dose-response with an HP D300 digital dispenser (Hewlett-Packard), followed by addition of 20 μL of substrate buffer. Plates were incubated at room temperature (25° C.) and read at 0 and 20 minutes with a Spectramax M5 plate reader (Molecular Devices) in fluorescence intensity mode with a λex=550 nm and λem=600 nm (emission cutoff=590 nm).

IC50: > 20 µM
Structure (SMILES): Cc1cc(C)nc(NC(=S)N2CCN(c3cncnc3)CC2)c1
